Reference: patent US20080286213A1, “Pharmaceuticals for treating or preventing oral diseases” (HAWLEY & HAZEL (BVI) COMPANY LIMITED, priority 2007, published 2008)

Experiments:
[1] = tested on: Actinobacillus actinomycetemcomitans (A. a) ATCC 43717; assay: MIC by micro-dilution method; assay type: cell-based; conditions: no unit in table; dilution series 250-0.12 mg/L, ceiling 250 ppm; 37°C, 18-24 h
Procedure: (§1) A single colony was picked from the Trypticase Digested Soybean peptone agar blood plate (TSA5B) of ordinarily stored bacteria species and used to inoculate corresponding broth culture medium, which was cultivated in a microaerobic environment (P.g needs anaerobic cultivation) with 95% air, 5% CO2 at 37.0° C.±1.0° C., wherein S.m was cultivated for 18-24 h, and the species were cultivated for 40-48 h. Then corresponding broth cultivate medium was used to adjust the turbidity of the bacteria suspension to 0.5^# McFarland standard, equivalent to 1.0×10^8 CFU/mL.
(§2) The operating steps were:
(§3) a. Preparation of the stock solution of antibacterial pharmaceutical: 1% stock solution of various antibacterial pharmaceuticals was prepared with 100% pure ethanol as solvent. The prepared stock solution was filtered to eliminate bacteria, and was distributed into small portions to be used.
(§4) b. Range of measured concentration: the present experiment used 250 ppm as the ceiling measured concentration of the anti-bacterial pharmaceutical.
(§5) c. Measuring method: micro-dilution method.
(§6) First, 100 μL broth medium was added to each well of the 96-well plate, then 100 μL sterile anti-bacteria pharmaceutical solution, which was diluted 10-fold (1000 mg/L), was added to each hole of the first column. Then each well of the first column was mixed repeatedly for 7-8 times using a multi-channel micropipet, and 100 μL sample was transferred to the second column after sufficiently mixing the pharmaceutical with TSB. After being similarly mixed for 7-8 times, 100 μL sample was transferred to the third column, and likewise to the wells of the remaining columns. Thus the concentration of the pharmaceutical was gradiently diluted 2-fold between the columns, from 500 mg/L in the first column to 0.24 mg/L in the last column (the 12th column).
(§7) The bacteria to be tested and standard bacteria were prepared as above. Both bacteria solutions were diluted with broth medium to a bacteria content of about 10^6 CFU/mL. Then 100 μL was inoculated into each well of the 96-well plate containing the anti-bacterial pharmaceutical. Thus the final diluted concentrations of the anti-bacteria pharmaceutical in each column were 250, 125, 62.5 . . . 0.12 mg/L, and the final inoculation quantity is about […] in each well. The 96-well plate was placed on a microshaker and shaken for 1 min to mix the solutions in each well. The microwell plate was covered and sealed with adhesive paper to reduce the evaporation during the incubation process. The plate was placed in a humid box, cultivated in microaerobic environment with 95% air, 5% CO2 (or in anaerobic environment with 90% N2, 5% H2, 5% CO2) at 37.0° C.±1.0° C. for 18-24 h. The 96-well plate is placed under an enzyme-labeling instrument. The growth characteristics of the tested bacteria were compared with the standard bacteria to determine the MIC, which was the lowest anti-bacterial pharmaceutical concentration contained in the well without bacterial growth.

[2] = tested on: Porphyromonas gingivalis (P. g) ATCC 33277; assay: MIC by micro-dilution method; assay type: cell-based; conditions: no unit in table; dilution series 250-0.12 mg/L, ceiling 250 ppm; anaerobic, 37°C, 18-24 h
Procedure: as §1, §2, §3, §4, §5, §6, §7

[3] = tested on: Streptococcus sanguis (S. sa) ATCC 10556; assay: MIC by micro-dilution method; assay type: cell-based; conditions: no unit in table; dilution series 250-0.12 mg/L, ceiling 250 ppm; 37°C, 18-24 h
Procedure: as §1, §2, §3, §4, §5, §6, §7

[4] = tested on: Streptococcus mutans (S. m) ATCC 25175; assay: MIC by micro-dilution method; assay type: cell-based; conditions: no unit in table; dilution series 250-0.12 mg/L, ceiling 250 ppm; 37°C, 18-24 h
Procedure: as §1, §2, §3, §4, §5, §6, §7

[5] = tested on: Actinomyces viscosus (A. v) ATCC 27044; assay: MIC by micro-dilution method; assay type: cell-based; conditions: no unit in table; dilution series 250-0.12 mg/L, ceiling 250 ppm; 37°C, 18-24 h
Procedure: as §1, §2, §3, §4, §5, §6, §7

[6] = tested on: Fusobacterium nucleatum subsp. Polymorphum (F. n) ATCC 10953; assay: MIC by micro-dilution method; assay type: cell-based; conditions: no unit in table; dilution series 250-0.12 mg/L, ceiling 250 ppm; 37°C, 18-24 h
Procedure: as §1, §2, §3, §4, §5, §6, §7

[7] = tested on: Actinomyces naeslundii (A. n) ATCC 12104; assay: MIC by micro-dilution method; assay type: cell-based; conditions: no unit in table; dilution series 250-0.12 mg/L, ceiling 250 ppm; 37°C, 18-24 h
Procedure: as §1, §2, §3, §4, §5, §6, §7

GM-CSF = assay: LUMINEX liquid-phase chip analysis of KB cell supernatant, GM-CSF; assay type: cell-based, human; conditions: KB cells; the larger the value, the stronger the anti-inflammatory ability; concentration not given
Procedure: (§8) Anti-inflammatory activity was assessed using the KB cell (the epidermis cancer cell in human oral cavity). During the experiment, the KB cell inoculated in the cultivating plate was treated with or without positive control or compound morusin. After the treatment, the supernatant of the cultivating medium was collected and stored in −80° C. refrigerator. Inflammation was assessed by measuring several inflammation markers: Prostaglandin E2 (PGE2) in the supernatant was detected by Enzyme-linked immunsorbent assay, and LUMINEX™ multifunctional liquid-phase chip analysis system was used for the detection of granulocyte […] colony stimulating factor (GM-CSF), tumor necrosis factor-alpha (TNF-α), and interleukins 1-beta and 6 (IL-1β and IL-6).
(§9) LUMINEX™ multifunctional liquid-phase chip analyses of GM-CSF, TNF-α, IL-1 and IL-6: The 96-well plate was enclosed with enclosing liquid for 30 minutes. Fluorescent microspheres were added into the 96-well plate after dilution. The standard and the samples to be measured were added, and incubated overnight at 4° C. The next day, the supernatant was discarded and 50 μL GM-CSF, TNF-α, IL-1β and IL-6 antibodies were added to each well. After being rinsed for 4 times, the 96-well plate was placed in a shaking table, which was in ambient temperature, to keep the plate away from light for 1 hour. […]

Prostaglandin E2 (PGE2) = assay: PGE2 enzyme-linked immunosorbent assay in KB cell supernatant; assay type: cell-based, human; conditions: oral KB cell, PGE2 in supernatant by ELISA
Procedure: as §8

IL-6 (interleukin) = assay: LUMINEX liquid-phase chip analysis of KB cell supernatant, IL-6; assay type: cell-based, human; conditions: KB cells; the larger the value, the stronger the anti-inflammatory ability; concentration not given
Procedure: as §8, §9

IL-1β (interleukin) = assay: LUMINEX liquid-phase chip analysis of KB cell supernatant, IL-1β; assay type: cell-based, human; conditions: KB cells; the larger the value, the stronger the anti-inflammatory ability; concentration not given
Procedure: as §8, §9

[8] = tested on: TNF-α (Tumor Necrosis Factor); assay: LUMINEX liquid-phase chip analysis of KB cell supernatant, TNF-α; assay type: cell-based, human; conditions: KB cells; the larger the value, the stronger the anti-inflammatory ability; concentration not given
Procedure: as §8, §9

| Structure (SMILES) | MIC, A. a ATCC 43717 [1] | MIC, P. g ATCC 33277 [2] | MIC, S. sa ATCC 10556 [3] | MIC, S. m ATCC 25175 [4] | MIC, A. v ATCC 27044 [5] | MIC, F. n ATCC 10953 [6] | MIC, A. n ATCC 12104 [7] | anti-inflammatory effect, GM-CSF (GM-CSF) [%] | 50% inhibitory concentration (Prostaglandin E2 result) (Prostaglandin E2 (PGE2)) [ppm] | anti-inflammatory effect, IL-6 (interleukin) (IL-6 (interleukin)) [%] | anti-inflammatory effect, IL-1β (interleukin) (IL-1β (interleukin)) [%] | anti-inflammatory effect, TNF-α (Tumor Necrosis Factor) [8] [%] |
| --- | --- | --- | --- | --- | --- | --- | --- | --- | --- | --- | --- | --- |
| CC(C)=CCc1c(-c2ccc(O)cc2O)oc2c3c(cc(O)c2c1=O)OC(C)(C)C=C3 [Morusin, 2-(2,4-dihydroxyphenyl)-5-hydroxy-8,8-dimethyl-3-(3-methyl-2-butenyl)-4H,8H-Benzo(1,2-b:3,4-b′)dipyran-4-one] | 2.4 | 1.9 | 3.9 | 3.9 | 2.4 | 15.6 | 1.9 | 9 | 0.02 | 49 | 20 | 91 |
| Oc1cc(Cl)ccc1Oc1ccc(Cl)cc1Cl [Triclosan] | 1.95 | 7.8 | 7.8 | 3.9 | 3.9 | 7.8 | 3.9 | 5 | ~0.02 | 31 | 7 | 81 |
